Data taken from publication PMC3261198, “Mitochondrial Apoptosis and FAK Signaling Disruption by a Novel Histone Deacetylase Inhibitor, HTPB, in Antitumor and Antimetastatic Mouse Models” (PLoS ONE, 2012).
pIC50: −log10 of the molar value.

Key:
HDAC = conditions: Fig. S5, compared to MS275
[1] = test system: acetylation of histone H3, histone H4 and p53; conditions: single dose 50 mg/kg intraperitoneal, after 2 hours
[2] = test system: IMR90 normal lung cell line; conditions: 0.5–10 µM, 48 hours, MTT
HDAC8 = HDAC8 (Homo sapiens, UniProt Q9BY41); conditions: HTPB 1 or 2 µM; class I HDAC from A549 cells
Chain of HDAC8 (Q9BY41 whole entry): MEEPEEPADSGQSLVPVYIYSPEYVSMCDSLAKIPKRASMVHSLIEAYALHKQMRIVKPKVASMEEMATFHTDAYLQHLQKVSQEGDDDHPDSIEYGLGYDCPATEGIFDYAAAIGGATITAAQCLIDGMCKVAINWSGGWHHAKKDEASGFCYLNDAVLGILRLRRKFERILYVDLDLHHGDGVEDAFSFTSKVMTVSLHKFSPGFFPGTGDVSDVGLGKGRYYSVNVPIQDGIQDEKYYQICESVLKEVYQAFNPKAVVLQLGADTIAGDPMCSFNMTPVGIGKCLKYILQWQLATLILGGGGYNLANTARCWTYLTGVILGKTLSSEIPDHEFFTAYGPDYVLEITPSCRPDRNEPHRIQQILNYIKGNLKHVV

H1299 cells [3] = conditions: H1299, 5 µM, 24 hours
HDAC6 = HDAC6 (Homo sapiens, UniProt Q9UBN7); conditions: HTPB 1 or 2 µM; class II HDAC from A549 cells
[4] = test system: 4T1-luc breast cancer cells; conditions: 1.92 µM, 48 hours
A549 cells [5] = test: cells; conditions: Homo sapiens, A549, 48 h, read-out: IC50 (cytotoxicity)
HDAC4 = HDAC4 (Homo sapiens, UniProt P56524); conditions: HTPB 1 or 2 µM; class II HDAC from A549 cells
Chain of HDAC4 (P56524 whole entry): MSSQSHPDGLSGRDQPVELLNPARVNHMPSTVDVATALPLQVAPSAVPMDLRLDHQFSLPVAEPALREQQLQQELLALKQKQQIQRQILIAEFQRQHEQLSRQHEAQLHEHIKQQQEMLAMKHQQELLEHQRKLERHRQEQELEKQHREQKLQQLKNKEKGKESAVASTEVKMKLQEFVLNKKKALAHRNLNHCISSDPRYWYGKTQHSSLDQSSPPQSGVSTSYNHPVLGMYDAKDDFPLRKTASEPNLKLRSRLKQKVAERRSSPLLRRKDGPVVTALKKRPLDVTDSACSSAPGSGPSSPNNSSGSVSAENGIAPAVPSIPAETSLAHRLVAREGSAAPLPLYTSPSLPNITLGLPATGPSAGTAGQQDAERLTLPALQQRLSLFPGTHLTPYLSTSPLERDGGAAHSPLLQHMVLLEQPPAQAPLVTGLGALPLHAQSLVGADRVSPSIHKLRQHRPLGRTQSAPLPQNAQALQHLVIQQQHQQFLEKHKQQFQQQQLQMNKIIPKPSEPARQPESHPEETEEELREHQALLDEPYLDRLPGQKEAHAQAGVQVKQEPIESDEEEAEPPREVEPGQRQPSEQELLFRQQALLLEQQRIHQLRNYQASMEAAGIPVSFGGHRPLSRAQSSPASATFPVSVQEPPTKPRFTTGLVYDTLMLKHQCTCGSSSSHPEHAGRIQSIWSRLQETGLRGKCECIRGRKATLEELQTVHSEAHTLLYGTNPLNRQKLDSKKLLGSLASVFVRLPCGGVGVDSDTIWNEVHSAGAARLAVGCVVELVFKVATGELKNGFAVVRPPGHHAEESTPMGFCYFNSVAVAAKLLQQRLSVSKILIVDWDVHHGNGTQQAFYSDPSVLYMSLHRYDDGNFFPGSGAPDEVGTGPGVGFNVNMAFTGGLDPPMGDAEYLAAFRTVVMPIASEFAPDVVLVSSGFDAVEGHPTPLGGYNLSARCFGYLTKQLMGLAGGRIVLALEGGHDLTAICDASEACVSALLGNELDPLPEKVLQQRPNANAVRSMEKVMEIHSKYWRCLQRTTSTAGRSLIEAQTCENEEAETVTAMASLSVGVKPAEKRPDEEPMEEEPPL
Chain of HDAC4 (O15379 whole entry, further chain): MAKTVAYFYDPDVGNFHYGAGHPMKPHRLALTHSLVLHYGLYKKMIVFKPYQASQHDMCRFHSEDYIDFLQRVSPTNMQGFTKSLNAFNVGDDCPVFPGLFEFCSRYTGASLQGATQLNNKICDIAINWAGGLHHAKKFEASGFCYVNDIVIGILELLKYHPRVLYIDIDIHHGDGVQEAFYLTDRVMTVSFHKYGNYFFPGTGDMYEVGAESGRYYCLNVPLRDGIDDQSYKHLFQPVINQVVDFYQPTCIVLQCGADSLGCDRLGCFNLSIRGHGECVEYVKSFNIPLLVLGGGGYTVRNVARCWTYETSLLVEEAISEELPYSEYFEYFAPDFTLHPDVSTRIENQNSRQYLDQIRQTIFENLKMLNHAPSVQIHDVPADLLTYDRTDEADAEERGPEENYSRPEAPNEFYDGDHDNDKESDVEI
Chain of HDAC4 (Q9Y618 whole entry, further chain): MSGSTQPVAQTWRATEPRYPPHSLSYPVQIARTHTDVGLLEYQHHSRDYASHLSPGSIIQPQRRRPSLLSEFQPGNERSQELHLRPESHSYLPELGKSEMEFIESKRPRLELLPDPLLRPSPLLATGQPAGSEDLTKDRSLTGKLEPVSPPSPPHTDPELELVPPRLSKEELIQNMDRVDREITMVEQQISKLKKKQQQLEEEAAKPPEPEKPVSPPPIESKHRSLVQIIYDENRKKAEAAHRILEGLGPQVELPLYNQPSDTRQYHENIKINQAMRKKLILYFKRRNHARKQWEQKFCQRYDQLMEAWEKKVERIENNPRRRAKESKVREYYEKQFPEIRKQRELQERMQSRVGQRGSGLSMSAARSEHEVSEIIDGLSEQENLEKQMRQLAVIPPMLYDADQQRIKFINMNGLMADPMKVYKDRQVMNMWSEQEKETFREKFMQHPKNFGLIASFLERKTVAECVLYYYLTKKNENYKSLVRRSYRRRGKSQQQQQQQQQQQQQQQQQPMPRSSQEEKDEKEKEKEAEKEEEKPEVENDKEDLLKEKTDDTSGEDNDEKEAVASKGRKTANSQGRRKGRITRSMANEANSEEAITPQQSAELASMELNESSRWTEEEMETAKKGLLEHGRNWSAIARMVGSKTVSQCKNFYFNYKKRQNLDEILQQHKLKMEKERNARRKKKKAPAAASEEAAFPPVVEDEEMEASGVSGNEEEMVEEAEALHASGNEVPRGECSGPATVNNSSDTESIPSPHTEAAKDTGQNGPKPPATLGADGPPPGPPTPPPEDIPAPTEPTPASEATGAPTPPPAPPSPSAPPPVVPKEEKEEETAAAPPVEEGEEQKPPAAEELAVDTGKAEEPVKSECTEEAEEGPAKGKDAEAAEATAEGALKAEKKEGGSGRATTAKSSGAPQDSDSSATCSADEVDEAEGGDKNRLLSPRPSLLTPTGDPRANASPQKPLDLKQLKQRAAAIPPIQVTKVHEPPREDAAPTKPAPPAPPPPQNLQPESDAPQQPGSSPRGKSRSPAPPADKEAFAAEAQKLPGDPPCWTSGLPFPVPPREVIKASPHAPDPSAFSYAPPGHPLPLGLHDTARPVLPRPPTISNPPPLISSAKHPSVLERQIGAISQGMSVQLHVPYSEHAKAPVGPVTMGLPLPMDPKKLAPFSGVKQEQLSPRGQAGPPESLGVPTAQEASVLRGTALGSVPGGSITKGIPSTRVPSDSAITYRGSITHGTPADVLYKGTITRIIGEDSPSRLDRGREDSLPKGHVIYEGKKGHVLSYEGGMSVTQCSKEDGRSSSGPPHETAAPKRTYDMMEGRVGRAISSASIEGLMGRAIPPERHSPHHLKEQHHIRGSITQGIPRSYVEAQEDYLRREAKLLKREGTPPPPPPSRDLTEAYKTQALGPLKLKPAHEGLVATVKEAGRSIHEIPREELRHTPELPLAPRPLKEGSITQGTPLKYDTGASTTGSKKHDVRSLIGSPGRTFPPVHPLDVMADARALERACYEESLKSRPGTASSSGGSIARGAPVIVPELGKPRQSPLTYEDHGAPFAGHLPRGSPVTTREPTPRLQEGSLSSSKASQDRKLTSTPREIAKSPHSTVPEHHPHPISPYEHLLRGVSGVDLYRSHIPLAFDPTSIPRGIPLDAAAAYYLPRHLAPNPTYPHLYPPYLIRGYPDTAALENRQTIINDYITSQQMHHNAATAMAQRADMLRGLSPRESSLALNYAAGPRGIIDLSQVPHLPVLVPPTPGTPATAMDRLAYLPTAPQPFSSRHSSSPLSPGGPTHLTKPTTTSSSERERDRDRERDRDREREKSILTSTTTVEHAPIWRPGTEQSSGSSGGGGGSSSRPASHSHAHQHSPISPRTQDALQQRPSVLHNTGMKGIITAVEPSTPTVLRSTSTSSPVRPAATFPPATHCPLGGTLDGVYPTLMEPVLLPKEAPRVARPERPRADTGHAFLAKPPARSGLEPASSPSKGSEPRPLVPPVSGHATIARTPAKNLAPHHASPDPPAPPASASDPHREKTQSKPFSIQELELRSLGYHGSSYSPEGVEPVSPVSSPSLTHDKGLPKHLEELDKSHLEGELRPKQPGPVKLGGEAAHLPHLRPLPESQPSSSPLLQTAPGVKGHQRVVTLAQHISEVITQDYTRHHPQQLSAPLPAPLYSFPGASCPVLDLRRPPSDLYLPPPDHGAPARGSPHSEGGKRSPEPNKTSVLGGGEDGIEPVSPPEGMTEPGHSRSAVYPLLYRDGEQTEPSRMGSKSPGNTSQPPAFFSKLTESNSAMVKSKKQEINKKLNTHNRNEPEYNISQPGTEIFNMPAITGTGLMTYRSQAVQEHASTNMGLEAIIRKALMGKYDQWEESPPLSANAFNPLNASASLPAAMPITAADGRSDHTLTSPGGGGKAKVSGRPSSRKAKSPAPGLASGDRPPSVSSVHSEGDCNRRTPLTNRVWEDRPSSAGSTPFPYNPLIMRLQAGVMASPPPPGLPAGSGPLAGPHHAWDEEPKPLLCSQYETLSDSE

HDAC11 = HDAC11 (Homo sapiens, UniProt Q96DB2); conditions: HTPB 1 or 2 µM; class IV HDAC from A549 cells
Chain of HDAC11 (Q96DB2 whole entry): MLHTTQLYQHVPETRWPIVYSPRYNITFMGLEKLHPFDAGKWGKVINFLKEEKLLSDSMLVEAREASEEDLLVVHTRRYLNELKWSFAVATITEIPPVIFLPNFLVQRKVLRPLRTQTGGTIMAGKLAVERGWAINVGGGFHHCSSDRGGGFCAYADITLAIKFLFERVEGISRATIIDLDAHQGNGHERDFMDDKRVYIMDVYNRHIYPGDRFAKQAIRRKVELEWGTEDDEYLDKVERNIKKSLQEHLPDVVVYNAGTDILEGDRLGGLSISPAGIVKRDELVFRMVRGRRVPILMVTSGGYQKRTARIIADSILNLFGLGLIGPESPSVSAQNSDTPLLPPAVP

MMP-2 = conditions: A549 and H1299 cells, 2.5 µM, 48 hours
in vitro [6] = conditions: human, A549 cells
H1299 cells [7] = test: cells; conditions: Homo sapiens, NCI-H1299, 48 h, read-out: IC50 (cytotoxicity)
[8] = test system: A549 lung tumor xenograft; test: In vivo anti-tumor growth assay; conditions: for tumor growth inhibition compared with DMSO control / tumor growth inhibition: 3 days/week for three weeks; for tumor growth inhibition: oral
A549 cells [9] = conditions: A549, 5 µM, 24 hours
[10] = test system: lung metastasis of 4T1-luc cells; conditions: cells pre-treated with 1.92 µM for 48 hours, injected via tail vein, imaged 13 days
HDAC1 = HDAC1 (Homo sapiens, UniProt Q13547); conditions: HTPB 1 or 2 µM; class I HDAC from A549 cells
MMP-9 = conditions: A549 and H1299 cells, 2.5 µM, 48 hours
in vitro [11] = conditions: human, H1299 cells
[12] = 25–100 mg/kg intraperitoneal or oral, three weeks
RhoA = conditions: A549 and H1299 cells, 2.5 µM, 48 hours
[13] = test system: acetylation of histone H3, histone H4, p53 and tubulin; conditions: time- and dose-dependent, Western blot
[14] = test system: 4T1-luc breast cancer cells; conditions: 1.92 µM, 48 hours; remark: listed apart in the source

O=C(CCCc1ccccc1)Nc1ccc(C(=O)NO)cc1 [HTPB, N-Hydroxy-4-(4-phenylbutyryl-amino)benzamide]
in vitro HDAC activity compared to MS275 (HDAC): significant inhibition | acetylation of histone H3, histone H4 and p53 in tumor xenograft [1]: profoundly increased | cytotoxicity towards IMR90 normal lung cell line [2]: without showing apparent cytotoxicity | deacetylase activity of HDAC8 (HDAC8): significantly inhibited | caspase-3 activity (H1299 cells [3]): significantly stimulated | caspase-9 activity (H1299 cells [3]): significantly stimulated | deacetylase activity of HDAC6 (HDAC6): significantly inhibited | transwell migration capacities compared to the un-treated control [4]: 50% | pIC50 (A549 cells [5]): 5.80 | deacetylase activity of HDAC4 (HDAC4): significantly inhibited | deacetylase activity of HDAC11 (HDAC11): significantly inhibited | MMP-2 enzyme activity (MMP-2): significantly decreased | viability at 48 h, 0.5 µM (in vitro [6]): 87% | viability at 48 h, 1 µM (in vitro [6]): 80% | pIC50 (H1299 cells [7]): 5.66 | tumor growth inhibition compared with DMSO control ([8]; intraperitoneal, 25 mg/kg): 80% | tumor growth inhibition compared with DMSO control ([8]; intraperitoneal, 50 mg/kg): 94% | anti-tumor growth effect, times more potent than SAHA as assessed by tumor weight ([8]; intraperitoneal, tumor weight): 2–4 times | tumor growth inhibition ([8]; 50 mg/kg): 39% | tumor growth inhibition ([8]; 100 mg/kg): 79% | caspase-3 activity (A549 cells [9]): significantly stimulated | caspase-9 activity (A549 cells [9]): significantly stimulated | lung metastasis of 4T1-luc cells [10]: significantly delayed lung metastasis | deacetylase activity of HDAC1 (HDAC1): significantly inhibited | MMP-9 enzyme activity (MMP-9): significantly decreased | viability at 48 h, 0.5 µM (in vitro [11]): 94% | viability at 48 h, 1 µM (in vitro [11]): 85% | effect on body weight [12]: did not adversely affect body weight | toxicity by hematological biochemistry examinations (GOT, GPT, albumin, creatinine) [12]: no detectable toxicity | RhoA activity (RhoA-GTP) (RhoA): markedly decreased | acetylation of histone H3, histone H4, p53 and tubulin [13]: induced acetylation | cell viability of 4T1-luc cells [14]: did not change cell viability
